Experiments:
[1] = system: P. falciparum 3D7 trophozoites; test: Metabolomic fingerprint profiling LC-MS; format: cell-based, Plasmodium falciparum; design: UDP-D-glucose / ADP-D-glucose: unit not given here; conditions: for Acetyllysine / N-acetyl-L-ornithine / N-carbamoyl-L-aspartate / NADPH / dAMP / dCMP / dTDP / dTMP / dTTP / dihydroorotate / orotate / DLH / DLS/SDL/SID / PD / PEE / PVNF / 3-phosphoglycerate / ADP-D-glucose / ATP / CDP / D-sedoheptulose-1/7-phosphate / FAD / GMP / NAD+ / NADP+ / Octoluse Bisphosphate / Pyroglutamic acid / UDP-D-glucose / UDP-D-glucuronate / UDP-N-acetyl-glucosamine / UDP / UMP / UTP / a-ketoglutarate / citrate/isocitrate / cytidine / dATP / dGMP/AMP / fumarate / glucose-1/6-phosphate / glycerate / guanine / guanosine / hypoxanthine / indole / inosine / nicotinate / ornithine / phosphoenolpyruvate / pyruvate / ribose-phosphate / sarcosine/alanine / sn-glycerol-3-phosphate / succinate/methylmalonic acid / uridine / xanthosine: S2 Table Metabolomics; for Acetyllysine: metabolite Acetyllysine; for N-acetyl-L-ornithine: metabolite N-acetyl-L-ornithine; for N-carbamoyl-L-aspartate: metabolite N-carbamoyl-L-aspartate; for NADPH: metabolite NADPH; for dAMP: metabolite dAMP; for dCMP: metabolite dCMP; for dTDP: metabolite dTDP; for dTMP: metabolite dTMP; for dTTP: metabolite dTTP; for dihydroorotate: metabolite dihydroorotate; for orotate: metabolite orotate; for DLH: peptide DLH; for DLS/SDL/SID: peptide DLS/SDL/SID; for PD: peptide PD; for PEE: peptide PEE; for PVNF: peptide PVNF; for 3-phosphoglycerate: metabolite 3-phosphoglycerate; for ADP-D-glucose: metabolite ADP-D-glucose; for ATP: metabolite ATP; for CDP: metabolite CDP; for CDP / D-sedoheptulose-1/7-phosphate / GMP / Octoluse Bisphosphate / UDP / UMP / UTP / citrate/isocitrate / dGMP/AMP / fumarate / glucose-1/6-phosphate / glycerate / guanine / guanosine / inosine / pyruvate / sarcosine/alanine / succinate/methylmalonic acid / uridine / xanthosine: change in metabolite level after compound treatment; for D-sedoheptulose-1/7-phosphate: metabolite D-sedoheptulose-1/7-phosphate; for FAD: metabolite FAD; for GMP: metabolite GMP; for NAD+: metabolite NAD+; for NADP+: metabolite NADP+; for Octoluse Bisphosphate: metabolite Octoluse Bisphosphate; for Pyroglutamic acid: metabolite Pyroglutamic acid; for UDP-D-glucose: metabolite UDP-D-glucose; for UDP-D-glucuronate: metabolite UDP-D-glucuronate; for UDP-N-acetyl-glucosamine: metabolite UDP-N-acetyl-glucosamine; for UDP: metabolite UDP; for UMP: metabolite UMP; for UTP: metabolite UTP; for a-ketoglutarate: metabolite a-ketoglutarate; for citrate/isocitrate: metabolite citrate/isocitrate; for cytidine: metabolite cytidine; for dATP: metabolite dATP; for dGMP/AMP: metabolite dGMP/AMP; for fumarate: metabolite fumarate; for glucose-1/6-phosphate: metabolite glucose-1/6-phosphate; for glycerate: metabolite glycerate; for guanine: metabolite guanine; for guanosine: metabolite guanosine; for hypoxanthine: metabolite hypoxanthine; for indole: metabolite indole; for inosine: metabolite inosine; for 2_3-Diphosphoglyceric acid / 4-phosphopantothenate / 6-phospho-D-gluconate / FMN / IMP / Pyrophosphate / Sedoheptoluse bisphosphate / cyclic-AMP / glutathione disulfide / lactate / myo-inositol: metabolite level change after treatment; for nicotinate: metabolite nicotinate; for ornithine: metabolite ornithine; for phosphoenolpyruvate: metabolite phosphoenolpyruvate; for pyruvate: metabolite pyruvate; for ribose-phosphate: metabolite ribose-phosphate; for sarcosine/alanine: metabolite sarcosine/alanine; for sn-glycerol-3-phosphate: metabolite sn-glycerol-3-phosphate; for succinate/methylmalonic acid: metabolite succinate/methylmalonic acid; for uridine: metabolite uridine; for xanthosine: metabolite xanthosine
[2] = system: P. falciparum; test: EC50 listed in S2 Table Metabolomics (used to set the concentration tested); format: cell-based; conditions: Plasmodium falciparum; EC50 used for Factor_XEC50 in metabolomics; read-out: EC50_nM

Structure (SMILES): COc1ccc(-c2c(C)nn3c(N)c(C#N)cnc23)cc1OC [MMV396797]
- Acetyllysine [1]: -1.561
- N-acetyl-L-ornithine [1]: -1.053
- N-carbamoyl-L-aspartate [1]: 1.252
- NADPH [1]: 0.3593
- dAMP [1]: 0.5405
- dCMP [1]: 1.351
- dTDP [1]: 0.6464
- dTMP [1]: 1.055
- dTTP [1]: 0.1329
- dihydroorotate [1]: 0.9521
- orotate [1]: -0.1403
- DLH [1]: -2.487
- DLS/SDL/SID [1]: -1.077
- PD [1]: -0.9589
- PEE [1]: -1.335
- PVNF [1]: -1.44
- 3-phosphoglycerate [1]: -0.332
- ADP-D-glucose [1]: 0.000409
- ATP [1]: -0.6534
- CDP [1]: 0.6836
- D-sedoheptulose-1/7-phosphate [1]: 0.6682
- FAD [1]: 0.02733
- GMP [1]: 0.6724
- NAD+ [1]: 0.9649
- NADP+ [1]: 0.1001
- Octoluse Bisphosphate [1]: -0.3618
- Pyroglutamic acid [1]: -0.2754
- UDP-D-glucose [1]: 0.1529
- UDP-D-glucuronate [1]: 0.1151
- UDP-N-acetyl-glucosamine [1]: 0.3642
- UDP [1]: 0.7706
- UMP [1]: 0.7638
- UTP [1]: 0.02297
- a-ketoglutarate [1]: -0.2189
- citrate/isocitrate [1]: -0.742
- cytidine [1]: -0.8311
- dATP [1]: -0.6595
- dGMP/AMP [1]: 0.1443
- fumarate [1]: -0.5921
- glucose-1/6-phosphate [1]: 0.3476
- glycerate [1]: -0.7107
- guanine [1]: -0.1249
- guanosine [1]: -0.2185
- hypoxanthine [1]: -0.6773
- indole [1]: -0.01428
- inosine [1]: -0.2482
- 2_3-Diphosphoglyceric acid [1]: 0.4884
- 4-phosphopantothenate [1]: 0.5554
- 6-phospho-D-gluconate [1]: 0.1152
- FMN [1]: 0.2278
- IMP [1]: 0.7032
- Pyrophosphate [1]: 0.391
- Sedoheptoluse bisphosphate [1]: -0.2371
- cyclic-AMP [1]: 0.5443
- glutathione disulfide [1]: 0.05378
- lactate [1]: -0.5978
- myo-inositol [1]: -0.8022
- nicotinate [1]: 0.06441
- ornithine [1]: -0.4887
- phosphoenolpyruvate [1]: -0.1659
- pyruvate [1]: -0.5507
- ribose-phosphate [1]: -0.3757
- sarcosine/alanine [1]: -0.5535
- sn-glycerol-3-phosphate [1]: -0.1272
- succinate/methylmalonic acid [1]: -0.001406
- uridine [1]: -0.3835
- xanthosine [1]: -0.6585
- EC50 [2]: 477 nM

Structure (SMILES): CC(C)(C)c1ccc(O)c(CNC2CCCCC2)c1 [MMV665785]
- Acetyllysine [1]: -3.15
- N-acetyl-L-ornithine [1]: -2.311
- N-carbamoyl-L-aspartate [1]: -1.546
- NADPH [1]: 0.984
- dAMP [1]: -0.2403
- dCMP [1]: -0.2349
- dTDP [1]: -0.5512
- dTMP [1]: -0.26
- dTTP [1]: 0.1164
- dihydroorotate [1]: -0.9762
- orotate [1]: -1.456
- DLH [1]: -3.579
- DLS/SDL/SID [1]: -3.002
- PD [1]: -3.491
- PEE [1]: -3.582
- PVNF [1]: -4.043
- 3-phosphoglycerate [1]: 0.5402
- ADP-D-glucose [1]: -0.1351
- ATP [1]: 0.1038
- CDP [1]: 0.1776
- D-sedoheptulose-1/7-phosphate [1]: 0.09578
- FAD [1]: 0.3792
- GMP [1]: -0.7077
- NAD+ [1]: 1.206
- NADP+ [1]: 0.3365
- Octoluse Bisphosphate [1]: 0.02588
- Pyroglutamic acid [1]: -0.2254
- UDP-D-glucose [1]: 0.3073
- UDP-D-glucuronate [1]: 0.153
- UDP-N-acetyl-glucosamine [1]: 0.3019
- UDP [1]: -0.1861
- UMP [1]: -0.1897
- UTP [1]: -0.0004267
- a-ketoglutarate [1]: -1.327
- citrate/isocitrate [1]: -0.9862
- cytidine [1]: 0.6078
- dATP [1]: 0.1738
- dGMP/AMP [1]: -0.2591
- fumarate [1]: -2.071
- glucose-1/6-phosphate [1]: 0.2752
- glycerate [1]: -0.524
- guanine [1]: -0.6198
- guanosine [1]: -0.8871
- hypoxanthine [1]: -0.2777
- indole [1]: -0.4001
- inosine [1]: -0.2517
- 2_3-Diphosphoglyceric acid [1]: 0.5476
- 4-phosphopantothenate [1]: -0.1524
- 6-phospho-D-gluconate [1]: 0.3686
- FMN [1]: 0.4685
- IMP [1]: 0.07164
- Pyrophosphate [1]: 0.2456
- Sedoheptoluse bisphosphate [1]: 0.06348
- cyclic-AMP [1]: -0.9854
- glutathione disulfide [1]: -0.1571
- lactate [1]: -0.3018
- myo-inositol [1]: 0.3826
- nicotinate [1]: -0.1953
- ornithine [1]: -0.1957
- phosphoenolpyruvate [1]: 0.4685
- pyruvate [1]: -0.3246
- ribose-phosphate [1]: -0.2844
- sarcosine/alanine [1]: -1.431
- sn-glycerol-3-phosphate [1]: -0.03786
- succinate/methylmalonic acid [1]: -0.9733
- uridine [1]: -0.6886
- xanthosine [1]: -1.575
- EC50 [2]: 161 nM

Reference: article PMC4965013, “Open Source Drug Discovery with the Malaria Box Compound Collection for Neglected Diseases and Beyond” (PLoS Pathogens, 2016)
